In patent US20260034123A1 (Cedilla Therapeutics, Inc., priority 2022, published 2026):

Experiments:
CDK2/Cyclin E1 [1] = molecular target: T1, CDK2/Cyclin E1 (Homo sapiens, UniProt P24941); experiment: Caliper LabChip EZ Reader mobility shift assay; type: biochemical; conditions: 2.5 nM CDK2/Cyclin E1(14-475), 100 μM ATP, 30 min preincubation; read-out: Caliper Assay (CDK2/CCNE1): IC50
Method: Inhibition of CDK2/Cyclin E1 activity in the presence of compounds of the present disclosure was evaluated using a Caliper LabChip® EZ Reader mobility shift assay. In the assay, activated CDK2/Cyclin E1 catalyzes the phosphorylation of a fluorescently tagged peptide 5-FAM-QSPKKG-CONH2 (PerkinElmer, FL Peptide 18) which induces a difference in capillary electrophoresis mobility. The peptide substrate and product were measured, and the conversion ratio was used to determine the inhibition (as % activity and IC50 values) of CDK2/Cyclin E1. Reactions contained 50 mM HEPES pH 7.5, 10 mM MgCl2, 1 mM EDTA, 2 mM DTT, 0.01% Brij35, 0.5 mg/mL BSA, 0.1% DMSO, 2.5 nM CDK2/Cyclin E1(14-475), 100 μM ATP, and 1.5 μM fluorescent peptide substrate.
Dose titrations of inhibitors in 100% DMSO were combined with 3.25 nM CDK2/Cyclin E1(14-475) and 130 μM of ATP in reaction buffer. The mixtures were incubated for 30 minutes before the addition of fluorescent peptide substrate to initiate the kinase reaction. The final conditions were 2.5 nM CDK2/Cyclin E1(14-475), 100 μM ATP, and 1.5 μM fluorescent peptide. The reactions were stopped after 100 minutes with the addition of EDTA (6 mM final EDTA concentration). The stopped reactions were analyzed on a Caliper LabChip® EZ Reader 11. The conversion ratios were normalized to yield % activity, plotted against compound concentration, and fit to a four-parameter equation to determine the IC50 for each compound.

Kuramochi cells RB-WT = experiment: IncuCyte Kuramochi cell proliferation assay, RB-WT; type: cell-based; conditions: 72 hours, cell count
Procedure, shortened: (§1)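 GI50 was derived by curve-fitting DMSO-normalized fold change in nuclear count between 0 and 72 h. Counts came from images of Kuramochi cells carrying mApple-H2B. Compounds were dosed over 10 points at 1/2-log spacing from a 20 µM top concentration.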

CDK2/Cyclin E1 [2] = molecular target: T1, CDK2/Cyclin E1; experiment: ADP-Glo Luminescent Kinase Assay (CDK2/E1-37C); type: biochemical; conditions: 0.18 nM CDK2/Cyclin E1, 100 μM ATP, Histone H1, 37° C.; read-out: ADPGLO (CDK2/E1-37C): IC50
Procedure, shortened: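 IC50 fitted by four-parameter equation from ADP-Glo luminescence converted to % activity. Compounds were preincubated 60 min at 37 °C with enzyme, then kinase reaction ran 90 min at 37 °C with 0.18 nM enzyme, 100 μM ATP, Histone H1 ([…]), pH 7.5 HEPES, Mg2+, DTT.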

Kuramochi cells RB-KO = experiment: IncuCyte Kuramochi cell proliferation assay, RB-KO; type: cell-based; conditions: 72 hours, cell count, batch mean
Procedure, shortened: as §1

Row | Structure (SMILES) | IC50 (CDK2/Cyclin E1 [1]) | IC50 (Kuramochi cells RB-WT) | IC50 (CDK2/Cyclin E1 [2]) | IC50 (Kuramochi cells RB-KO)
1 | O=C(c1cncs1)N1C[C@@H](COCc2cccc(-c3ccc(C4(C(F)(F)F)CC4)cc3)n2)C2(CN(CC3CCCO3)C2)C1 (stereo partly drawn) [Compound I-7, ((8S)-2-((tetrahydrofuran-2-yl)methyl)-8-(((6-(4-(1-(trifluoromethyl)cyclopropyl)phenyl)pyridin-2-yl)methoxy)methyl)-2,6-diazaspiro[3.4]octan-6-yl)(thiazol-5-yl)methanone] | > 10 µM | > 10 µM | – | –
2 | O=C(c1cncs1)N1C[C@@H](COCc2cccc(-c3ccc(C4CC4)cc3)n2)C2(CN(CC3CCCO3)C2)C1 (stereo partly drawn) [Compound I-8, ((8S)-8-(((6-(4-cyclopropylphenyl)pyridin-2-yl)methoxy)methyl)-2-((tetrahydrofuran-2-yl)methyl)-2,6-diazaspiro[3.4]octan-6-yl)(thiazol-5-yl)methanone] | > 10 µM | > 10 µM | – | –
3 | CC1(C)C[C@@H]1C(=O)N1CC2(CN(CC3CCCO3)C[C@H]2CNC(=O)c2cccc(-c3ccc(C(F)(F)F)cc3)n2)C1 (stereo partly drawn) [Compound I-9, N-(((8R)-2-((S)-2,2-dimethylcyclopropane-1-carbonyl)-6-((tetrahydrofuran-2-yl)methyl)-2,6-diazaspiro[3.4]octan-8-yl)methyl)-6-(4-(trifluoromethyl)phenyl)picolinamide] | > 10 µM | > 10 µM | – | –
4 | CC1(C)C[C@@H]1C(=O)N1CC2(CN(C(=O)c3cnn(Cc4ccc(F)cc4)c3)CC2/C=C\Cc2cccc(C3CCC(F)(F)CC3)c2C(=O)O)C1 (stereo partly drawn) [I′-69] | – | 5 to 10 µM | > 10 µM | > 10 µM
5 | CC1(C)C[C@@H]1C(=O)N1CC2(CN(C(=O)c3cnn(Cc4ccc(F)cc4)c3)CC2COCc2cccc(C3CCC(F)(F)CC3)c2-c2nn[nH]n2)C1 (stereo partly drawn) [I′-70, (8-(((3-(4,4-difluorocyclohexyl)-2-(2H-tetrazol-5-yl)benzyl)oxy)methyl)-2-((S)-2,2-dimethylcyclopropane-1-carbonyl)-2,6-diazaspiro[3.4]octan-6-yl)(1-(4-fluorobenzyl)-1H-pyrazol-4-yl)methanone] | – | > 10 µM | ≤ 0.5 µM | > 10 µM
6 | CC(C)(C(=O)N1CC2(C1)CN(c1cc(F)c(F)c3ncsc13)C[C@H]2COCc1cccc(C2CCC(F)(F)CC2)c1C(=O)O)C(F)(F)F [I′-71, (S)-2-(((6-(4,5-difluorobenzo[d]thiazol-7-yl)-2-(3,3,3-trifluoro-2,2-dimethylpropanoyl)-2,6-diazaspiro[3.4]octan-8-yl)methoxy)methyl)-6-(4,4-difluorocyclohexyl)benzoic acid] | – | 5 to 10 µM | ≤ 0.5 µM | > 10 µM
7 | CC1(C)C[C@@H]1C(=O)N1CC2(C1)CN(c1cc(F)c(F)c3ncsc13)C[C@H]2COCc1cccc(C2CCC(F)(F)CC2)c1C(=O)O [I′-72, 2-((((S)-6-(4,5-difluorobenzo[d]thiazol-7-yl)-2-((S)-2,2-dimethylcyclopropane-1-carbonyl)-2,6-diazaspiro[3.4]octan-8-yl)methoxy)methyl)-6-(4,4-difluorocyclohexyl)benzoic acid] | – | ≤ 0.5 µM | ≤ 0.5 µM | > 10 µM
8 | O=C(O)c1c(COCC2CN(C(=O)c3cnn(Cc4ccc(F)cc4)c3)CC23CN(C(=O)C2(C(F)(F)F)CC2)C3)cccc1-c1ccc(Cl)cc1F (stereo not drawn) [I′-73] | – | ≤ 0.5 µM | ≤ 0.5 µM | > 10 µM
9 | O=C(O)c1ccccc1Cn1cc(C(=O)N2CC(COCc3cccc(C4CCC(C(F)(F)F)CC4)c3OC(F)F)C3(C2)CN(C(=O)C2(C(F)(F)F)CC2)C3)cn1 (stereo not drawn) [I′-74, 2-((4-(8-(((2-(difluoromethoxy)-3-(4-(trifluoromethyl)cyclohexyl)benzyl)oxy)methyl)-2-(1-(trifluoromethyl)cyclopropane-1-carbonyl)-2,6-diazaspiro[3.4]octane-6-carbonyl)-1H-pyrazol-1-yl)methyl)benzoic acid] | – | > 10 µM | ≤ 0.5 µM | > 10 µM
10 | CC1(C)C[C@@H]1C(=O)N1CC2(CN(C(=O)c3cnn(Cc4ccc(F)cc4)c3)CC2COCc2cccc(C3CCC(F)(F)CC3)c2C#N)C1 (stereo partly drawn) [I′-75, 2-(4,4-difluorocyclohexyl)-6-(((2-((S)-2,2-dimethylcyclopropane-1-carbonyl)-6-(1-(4-fluorobenzyl)-1H-pyrazole-4-carbonyl)-2,6-diazaspiro[3.4]octan-8-yl)methoxy)methyl)benzonitrile] | – | > 10 µM | ≤ 0.5 µM | > 10 µM
11 | CC(C)(C(=O)N1CC2(CN(C(=O)c3cnn(Cc4ccc(F)cc4)c3)CC2COCc2cccc(C3CCC(F)(F)CC3)c2C(=O)O)C1)C(F)(F)F (stereo not drawn) [I′-76] | – | 0.5 to 5 µM | ≤ 0.5 µM | 5 to 10 µM
12 | Cc1cc(F)ccc1-c1cccc(COCC2CN(C(=O)c3cnn(Cc4ccc(F)cc4)c3)CC23CN(C(=O)C2(C(F)(F)F)CC2)C3)c1C(=O)O (stereo not drawn) [I′-77, 4′-fluoro-3-(((6-(1-(4-fluorobenzyl)-1H-pyrazole-4-carbonyl)-2-(1-(trifluoromethyl)cyclopropane-1-carbonyl)-2,6-diazaspiro[3.4]octan-8-yl)methoxy)methyl)-2′-methyl-[1,1′-biphenyl]-2-carboxylic acid] | – | 5 to 10 µM | ≤ 0.5 µM | > 10 µM
13 | CC1(C)C[C@@H]1C(=O)N1CC2(CN(C(=O)c3cnn(Cc4ccc(F)cc4)c3)CC2C#CCc2cccc(C3CCC(F)(F)CC3)c2C(=O)O)C1 (stereo partly drawn) [I′-78] | – | > 10 µM | > 10 µM | > 10 µM
14 | CC(C)(C)OC(=O)c1c(COCC2CN(C(=O)c3cnn(Cc4ccc(F)cc4)c3)CC23CN(C(=O)[C@H]2CC2(C)C)C3)cccc1C1CCC(F)(F)CC1 (stereo partly drawn) [I′-79, tert-butyl 2-(4,4-difluorocyclohexyl)-6-(((2-((S)-2,2-dimethylcyclopropane-1-carbonyl)-6-(1-(4-fluorobenzyl)-1H-pyrazole-4-carbonyl)-2,6-diazaspiro[3.4]octan-8-yl)methoxy)methyl)benzoate] | – | > 10 µM | ≤ 0.5 µM | > 10 µM
15 | CC1(C)C[C@@H]1C(=O)N1CC2(CN(C(=O)c3cnn(Cc4ccc(F)cc4)c3)CC2COCc2cccc(C3CCC(F)(F)CC3)c2C(=O)O)C1 (stereo partly drawn) [I′-80, 2-(4,4-difluorocyclohexyl)-6-(((2-((S)-2,2-dimethylcyclopropane-1-carbonyl)-6-(1-(4-fluorobenzyl)-1H-pyrazole-4-carbonyl)-2,6-diazaspiro[3.4]octan-8-yl)methoxy)methyl)benzoic acid] | – | 0.5 to 5 µM | ≤ 0.5 µM | > 10 µM
16 | CC1(C)C[C@@H]1C(=O)N1CC2(CN(C(=O)c3cnn(Cc4ccc(F)cc4)c3)CC2COCc2cccc(Br)c2C(=O)O)C1 (stereo partly drawn) [I′-81] | – | > 10 µM | 0.5 to 5 µM | > 10 µM
17 | O=C(O)c1c(O)cc(COCC2CN(C(=O)c3cnn(Cc4ccc(C(F)(F)F)cc4)c3)CC23CN(C(=O)C2(C(F)(F)F)CC2)C3)cc1C1CCC(F)(F)CC1 (stereo not drawn) [I′-82] | – | > 10 µM | 5 to 10 µM | > 10 µM
18 | CC(C)(C)OC(=O)c1c(COCC2CN(C(=O)c3cnn(Cc4ccc(F)cc4C(F)(F)F)c3)CC23CN(C(=O)C2(C(F)(F)F)CC2)C3)cccc1C1CCC(C(F)(F)F)CC1 (stereo not drawn) [I′-83] | – | > 10 µM | 0.5 to 5 µM | > 10 µM
19 | CC1(C)C[C@@H]1C(=O)N1CC2(CN(C(=O)c3cnn(Cc4ccc(F)cc4)c3)CC2COCc2cccc(C3CCC(C(F)(F)F)CC3)c2C(N)=O)C1 (stereo partly drawn) [I′-84, 2-(((2-((S)-2,2-dimethylcyclopropane-1-carbonyl)-6-(1-(4-fluorobenzyl)-1H-pyrazole-4-carbonyl)-2,6-diazaspiro[3.4]octan-8-yl)methoxy)methyl)-6-(4-(trifluoromethyl)cyclohexyl)benzamide] | – | > 10 µM | ≤ 0.5 µM | > 10 µM
20 | CC1(C)C[C@@H]1C(=O)N1CC2(CN(C(=O)c3cnn(Cc4ccc(F)cc4)c3)CC2COCc2cccc(C3CCC(C(F)(F)F)CC3)c2C(=O)O)C1 (stereo partly drawn) [I′-85, 2-(((2-((S)-2,2-dimethylcyclopropane-1-carbonyl)-6-(1-(4-fluorobenzyl)-1H-pyrazole-4-carbonyl)-2,6-diazaspiro[3.4]octan-8-yl)methoxy)methyl)-6-(4-(trifluoromethyl)cyclohexyl)benzoic acid] | – | ≤ 0.5 µM | ≤ 0.5 µM | 5 to 10 µM
21 | N#Cc1c(COCC2CN(C(=O)c3cnn(Cc4ccc(C(F)(F)F)cc4)c3)CC23CN(C(=O)C2(C(F)(F)F)CC2)C3)cccc1C1CCC(C(F)(F)F)CC1 (stereo not drawn) [I′-86] | – | > 10 µM | 0.5 to 5 µM | > 10 µM
